{
  "source": "patent US11666657B2",
  "about": "“Protein-drug conjugates and their use in the treatment of cancers” (UNIVERSITE DE STRASBOURG, priority 2017, dated 2023)",
  "key": {"HER2+ SK-BR-3 cells": {"test_system": "HER2+ SK-BR-3 cells", "experiment": "In vitro efficacy on cell viability (CellTiter 96 AQueous One Solution Cell Proliferation Assay), HER2+ SK-BR-3", "format": "cell-based", "conditions": "96 hrs treatment", "description": "Antiproliferative activity of the ADCs according to this invention was evaluated on two cell lines and compared with that of the commercial ADC Kadcyla® (T-DM1).\nHER2^+ SK-BR-3 and HER2^− MDA-MB-231 cell lines were grown in DMEM—high glucose (4,500 mg/L) supplemented with 10% fetal calf serum, Penicillin (200 U/mL)-Streptomycin (200 μg/mL) and L-glutamin (4 mM) (all from Sigma Aldrich, St Louis, Mo., USA). The effects of the payloads and ADCs on these cell lines were assessed using CellTiter 96® AQueous One Solution Cell Proliferation Assay (Promega, Madison, Wis., USA). The cytotoxic agent MMAE was used as a positive control of cell death and every condition was performed as triplicates. SKBR-3 cells were plated in 96-well plates at 3,000 cells/well for ADC tests and at 5,000 cells/well for payload tests, in 100 μL medium. MDA-MB231 cells were plated in 96-well plates at 15,000 cells/well, in 100 μL medium. The cells were allowed to adhere for 24 hrs at 37° C. in a humidified atmosphere of 5% CO2. Medium was then removed and replaced by payloads, ADCs, or MMAE, at different concentrations in fresh medium. […] Absorbance was measured at 515 nm using a 96-well plate reader (Flx-Xenius XM, Safas, Monaco), and to estimate the percentage of viable cells according to each treatment, the negative controls were considered as 100% viability. […]"}, "[1]": {"test_system": "BT-474 ductal carcinoma tumors", "experiment": "In vivo anti-tumour efficacy in nude mice bearing subcutaneous BT-474 tumors", "design": "species or system Balb/c nude mice", "conditions": "single i.v. injection 1 mg/kg, BT-474 tumours in nude mice, versus control group", "protocol": "In vivo therapeutic efficacy of the ADCs of this invention was evaluated in nude mice bearing subcutaneous BT-474 tumors.\nTwenty (20) 6 to 8 week-old Balb/c nude (CByJ.Cg-Foxn1nu/J) females (Charles River Laboratories, L'Arbresles, France) were implanted with BT-474 ductal carcinoma cells (2×10^7) suspended in 200 μL RPMI 1640 medium (Sigma Aldrich) containing matrigel (50:50, v:v, BD Biosciences, France). The injection was performed subcutaneously in the right flank. One day prior implant, the animals were gamma irradiated (2 Gy, ^60Co). The cell transplant was considered as day 0 (D0). Once tumours reached a volume of 200-300 mm^3, mice were randomized according to their individual tumour volume into four distinct groups. The variance of mouse distribution within the groups was analysed to confirm the homogeneity of the groups.\nAnimal viability, behaviour and well-being were recorded daily; body weight was measured twice a week; and tumour volume was assessed twice a week with a calliper. The volume of the tumour was estimated formula as follow: volume=(width^2×length)/2.\nRelative tumour volumes (RTV) were calculated according to the following formula:\nSpecifically, a principal component analysis (PCA) was carried out using XL Stat software (Addinsoft, Paris, France) in order to compare antitumour activity of T-DM1 and T-APN-Gal-MMAE. […]"}},
  "note": "Where “and” joins values, the source holds several entries; their conditions need not be identical. Equal values may be shown once.",
  "data": [
    {"substance": "trastuzumab emtansine [T-DM1]", "values": [
      {"measurement": "IC50", "setting": "HER2+ SK-BR-3 cells", "result": "0.033 nM and 0.0342 nM"},
      {"measurement": "effect on tumour growth", "setting": "[1]", "result": "not statistically significant"}
    ]}
  ]
}
